For 14 compounds, Inhibition results are on record in ChEMBL document CHEMBL1121708, “Synthesis and study of the potential antiallergic activity of some pyrazole derivatives” (1981).

The subject of test [1] is Rattus norvegicus. As to the kind of experiment: Compound was tested for inhibition of the rat passive cutaneous anaphylaxis (PCA) 1 hr after oral administration; >0<50. Type of test: functional. Also on record: concentration or dose not given beside the values.
Test [2] concerns Rattus norvegicus. The test can be described thus: Compound was tested for inhibition of the rat passive cutaneous anaphylaxis (PCA) 3h after oral administration; >0<50. Type of test: functional. Also on record: concentration or dose not given beside the values.

Molecules are shown by their SMILES.

In general, Inhibition refers to the change of the read-out against control, counted positive when it falls. Take `CC1Cc2c[nH]nc2-c2ccccc21` (stereo not drawn): the Inhibition with Rattus norvegicus [1] and in the test on Rattus norvegicus [2] was above 0% throughout.

`COc1ccc2c(c1)CCc1c[nH]nc1-2`: the Inhibition in the test with Rattus norvegicus [1] and with Rattus norvegicus [2] was above 0% each time.

As to `c1ccc2c(c1)SCc1cn[nH]c1-2`, the Inhibition in the test on Rattus norvegicus [1] and with Rattus norvegicus [2] was above 0% each time.

For `c1[nH]nc2c1CCC1c3n[nH]cc3CCC21` (stereo not drawn), the Inhibition stood at 77% in the test with Rattus norvegicus [1] and 55% in the test with Rattus norvegicus [2].

On to `COc1ccc2c(c1)-c1n[nH]cc1CC2`, for which the values for the Inhibition with Rattus norvegicus [1] and with Rattus norvegicus [2] were 32% and above 0%, respectively.

For `CCc1cc2c(cc1CC)-c1n[nH]cc1CC2`, the Inhibition in the test with Rattus norvegicus [1] and with Rattus norvegicus [2] was above 0% in each case.

Consider `Oc1ccc2c(c1)-c1n[nH]cc1CC2`, for which the Inhibition in the test on Rattus norvegicus [1] and with Rattus norvegicus [2] was above 0% in each case.

On to `c1ccc2c(c1)OCc1cn[nH]c1-2`, for which the Inhibition in the test with Rattus norvegicus [1] and with Rattus norvegicus [2] was above 0% each time.

`Nc1ccc2[nH]ncc2c1`: the results for the Inhibition with Rattus norvegicus [1] and in the test on Rattus norvegicus [2] were above 0% and 54%, respectively.

For `COc1cccc2c1CCc1c[nH]nc1-2`, the Inhibition in the test on Rattus norvegicus [1] is on record as 15%; in the test on Rattus norvegicus [2], above 0%.

Consider `c1ccc2c(c1)CCCc1c[nH]nc1-2`, for which the Inhibition in the test on Rattus norvegicus [1] and in the test with Rattus norvegicus [2] was above 0% each time.

In the case of `Oc1ccc2c(c1)CCc1c[nH]nc1-2`, the Inhibition in the test on Rattus norvegicus [1] and with Rattus norvegicus [2] was above 0% throughout.

On to `Oc1cccc2c1CCc1c[nH]nc1-2`, for which the Inhibition in the test with Rattus norvegicus [1] and in the test with Rattus norvegicus [2] was above 0% in each case.

On to `c1ccc2c(c1)CCc1c[nH]nc1-2`, for which the Inhibition with Rattus norvegicus [1] and in the test on Rattus norvegicus [2] was above 0% throughout.
